Experiment: NMR rate studies: pseudo-first order reaction with N-acetylcysteine methyl ester
Assay type: physicochemical
Settings: electrophile 10 mM, N-acetyl cysteine methyl ester 78 mM, 2:1 deuterated PBS:DMSO-d6, pD 8, NMR
Text: We further validated the utility of electrophile 3 as a thiol-reactive tether by making a library of one hundred structurally diverse drug-like fragments 6-105 containing this electrophile. The library was constructed with an HBTU amide coupling with commercially available carboxylic acid fragments (FIG. 2A). The acids were selected with “rule of three” criteria^15 and a subsequent diversity analysis. We measured the reaction rates for the first fifty fragments to confirm that this library would have balanced cysteine reactivity and could be used for irreversible tethering (FIG. 2B).
N-Acetyl cysteine methyl ester was dissolved in 2:1 deuterated PBS:DMSO-d6 (78 mM) with 10 mM CH2Cl2 as an internal standard. The electrophile (10 mM) was then added immediately prior to acquiring spectra. H1 spectra were taken every 30 s for 30 min (or every 4 s for 5 min for highly reactive compounds 1c and 2a-c). The integrals of the vinyl peaks were used to determine the concentration of the electrophile over time. The natural logarithm of the concentration of the electrophile versus time was then plotted using GraphPad Prism software. The linear slope of this plot was used to determine the pseudofirst order rate constant. Deuterated PBS recipe: 20 mM Na3PO4, 50 mM NaCl in D2O was adjusted to pD 8 with DC1 solution.

Compound | k pseudo-first order [s⁻¹]
COC(=O)/C=C/CNC(=O)c1c(C)n(C)c2ccc(OC)cc12 [Compound 43] | 0.0007616
COC(=O)/C=C/CNC(=O)c1cc(C2CC2)nc2ccccc12 [Compound 52] | 0.0005984
COC(=O)/C=C/CNC(=O)c1ccnc(C)c1 [Compound 29] | 0.0004038
COC(=O)/C=C/CNC(=O)c1c(C)[nH]c2ccc(OC)cc12 [Compound 12, Methyl(E)-4-(5-methoxy-2-methyl-1H-indole-3-carboxamido)but-2-enoate] | 0.000654
C=CCN1CC(C(=O)NC/C=C/C(=O)OC)CC1=O (centres unmarked) [Compound 40] | 0.0004793
COC(=O)/C=C/CNC(=O)C1COc2c(cccc2OC)C1 (centres unmarked) [Compound 26] | 0.0006107
COC(=O)/C=C/CNC(=O)Cc1c(C)nn(-c2ccccc2)c1C [Compound 42] | 0.0005281
COC(=O)/C=C/CNC(=O)c1c[nH]c2ccc(OC)cc12 [Compound 13, Methyl(E)-4-(5-methoxy-1H-indole-3-carboxamido)but-2-enoate] | 0.0003582
COC(=O)/C=C/CNC(=O)Cn1ncc2ccccc21 [Compound 21] | 0.0003327
COC(=O)/C=C/CNC(=O)c1c(C)nc2cc(C)ccn12 [Compound 45] | 0.0003961
COC(=O)/C=C/CNC(=O)c1cnn(-c2ccccc2OC)c1 [Compound 24] | 0.0005202
COC(=O)/C=C/CNC(=O)CNC(=O)c1ccccc1Br [Compound 54] | 0.0005048
CCn1c(C)c(C(=O)NC/C=C/C(=O)OC)c2cc(OC)ccc21 [Compound 14, Methyl(E)-4-(1-ethyl-5-methoxy-2-methyl-1H-indole-3-carboxamido)but-2-enoate] | 0.0005016
COC(=O)/C=C/CNC(=O)C(C)n1cnc2ccccc21 (centres unmarked) [Compound 48] | 0.000468
CCn1nc(C(C)C)cc1C(=O)NC/C=C/C(=O)OC [Compound 46] | 0.0007806
COC(=O)/C=C/CNC(=O)c1c[nH]nc1-c1cccc(F)c1 [Compound 47] | 0.0006539

Compound | k pseudo-first order [s⁻¹]
COC(=O)/C=C/CNC(=O)C1Cc2ccccc2CN1C (centres unmarked) [Compound 16] | 0.0006414
COC(=O)/C=C/CNC(=O)c1cc2c([nH]c1=O)CCCC2 [Compound 44] | 0.0006746
COC(=O)/C=C/CNC(=O)c1sc(C(C)C)nc1C [Compound 17] | 0.0006156
COC(=O)/C=C/CNC(=O)c1ccc(CN2CCc3ccccc3C2)cc1 [Compound 30] | 0.0006579
COC(=O)/C=C/CNC(=O)c1ccc(Cl)cn1 [Compound 53] | 0.0005521
COC(=O)/C=C/CNC(=O)C1CC(=O)N(C)c2ccccc21 (centres unmarked) [Compound 15] | 0.0007733
COC(=O)/C=C/CNC(=O)c1cc(C)nc2ccc(C)cc12 [Compound 27] | 0.0006665
COC(=O)/C=C/CNC(=O)c1ccccc1Br [Compound 34] | 0.0007717
CCC(C(=O)NC/C=C/C(=O)OC)N1Cc2ccccc2C1=O (centres unmarked) [Compound 18] | 0.0006093
COC(=O)/C=C/CNC(=O)c1ccc(OC)cc1 [Compound 28] | 0.00042
COC(=O)/C=C/CNC(=O)c1c(C)[nH]c2c1C(=O)CCC2 [Compound 41] | 0.0005635
COC(=O)/C=C/CNC(=O)Cn1nc(C)cc1C [Compound 37] | 0.0004493
COC(=O)/C=C/CNC(=O)c1cccc(Cl)n1 [Compound 33] | 0.0006348
COC(=O)/C=C/CNC(=O)c1ccccc1N(C)C(=O)c1ccco1 [Compound 51] | 0.0005048
COC(=O)/C=C/CNC(=O)C(CO)c1ccccc1 (centres unmarked) [Compound 36] | 0.00034
COC(=O)/C=C/CNC(=O)c1n[nH]cc1Br [Compound 50] | 0.0006514
